{
  "source": "patent US12528774B2",
  "about": "“Thiosemicarbazone compounds and uses thereof” (The Regents of the University of California, priority 2019, dated 2026)",
  "tested_on": "p185BCR-ABL Arf−/− pre-B-ALL cells",
  "assay": "In vivo efficacy, systemic p185 pre-B ALL model",
  "set-up": "species or system mouse",
  "conditions": "1 mg/kg q.d. 8 days; fourteen days after treatment initiation",
  "text": "FIG. 9A: dose and schedule for the efficacy study in p185 pre-B-ALL mice. FIGS. 9B-9D: bioluminescence images and quantification of whole body radiance of mice treated with HCT-16 (n=5) or vehicle control (n=10). FIG. 9E: dose and schedule for the efficacy study in MV4-11 AML bearing mice. FIGS. 9F-9H: bioluminescence images and quantification of whole body radiance of mice treated with HCT-16 (n=5) or vehicle control (n=5). (mean±SD, n=2, student's paired t-test, * P<0.05; ** P<0.01; *** P<0.001). q.d.=once/day. For purposes of the disclosure, Cu(HCT-13) is the same as compound HCT-16 (i.e., copper complexed with HCT-13).\nThe in vivo efficacy and tolerability of HCT-13 was investigated. […] Both p185 and MV4-11 cell lines were engineered to express luciferase to monitor the systemic leukemic burden by bioluminescence imaging (BLI). (Boulos et al, Blood 2011, 117(13):3585-3595; Rahmani et al, Cancer Res. 2018, 78(11):3075-3086). To bypass the need for systemic copper supplementation, a one-to-one complex of copper and HCT-13 (i.e., HCT-16) was prepared for in vivo administration according to reported procedures for similar compounds and characterized by UV-HPLC and HR-MS. […]\nIn vivo leukemia models and treatment regimens. […] The leukemic burden was monitored using bioluminescence imaging. […]",
  "data": [
    {"compound": "CN(C)C(=S)N/N=C/c1nccc2cc(F)ccc12", "note": "(mixture of isomers) [HCT13, (E)-2-((6-Fluoroisoquinolin-1-yl)methylene)-N,N-dimethylhydrazine-1-carbothioamide and (Z)-2-((6-Fluoroisoquinolin-1-yl)methylene)-N,N-dimethylhydrazine-1-carbothioamide]", "values": [
      {"measurement": "systemic disease burden versus control group (bioluminescence)", "result": "significantly lower systemic disease burden"}
    ]}
  ]
}
